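Assay format: 96-well plates, 48-hour exposure. Here, GI50 denotes the concentration required for 50% inhibition of growth.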 Activity calls are given as the source filed them. Cut-off read from the data, not from the text of the source: active = GI50 up to about 1.1 µM and inactive = higher.
What was measured:
Assay in all cases: DTP human tumour cell line panel, 48 h
[1] = test system: DLD-1
[2] = test system: UO-31
[3] = test system: OVCAR-5
[4] = test system: NCI-H23
[5] = test system: NCI-H460
[6] = test system: OVCAR-3
[7] = test system: RXF 393
[8] = test system: RXF 631
[9] = test system: DMS-114
[10] = test system: CAKI-1
[11] = test system: KM-20L2
[12] = test system: EKVX
[13] = test system: HCT-116
[14] = test system: Malme-3M
[15] = test system: ACHN
[16] = test system: HOP-62
[17] = test system: SK-OV-3
[18] = test system: SNB-75
[19] = test system: HOP-18
[20] = test system: TK-10
[21] = test system: RPMI-8226
[22] = test system: SNB-19
[23] = test system: M14
[24] = test system: OVCAR-8
[25] = test system: SW-620
[26] = test system: DMS-273
[27] = test system: HCT-15
[28] = test system: SN12C
[29] = test system: SR
[30] = test system: HT-29
[31] = test system: MOLT-4
[32] = test system: CCRF-CEM
[33] = test system: U-251
[34] = test system: 786-0
[35] = test system: SF-295
[36] = test system: UACC-62
[37] = test system: HOP-92
[38] = test system: K562
[39] = test system: KM12
[40] = test system: HL-60
[41] = test system: SF-268
[42] = test system: COLO 205
[43] = test system: NCI-H522
[44] = test system: HCC 2998
[45] = test system: A549
[46] = test system: LOX IMVI
[47] = test system: A498
[48] = test system: SK-MEL-28
[49] = test system: IGROV-1
[50] = test system: NCI-H226
[51] = test system: LXFL 529
[52] = test system: M19-MEL
[53] = test system: OVCAR-4
[54] = test system: SNB-78
[55] = test system: UACC-257

Cc1cc(Cc2cc(C)c(NC(=O)C(=O)C3C(=O)NC(=S)NC3=O)c(C(C)C)c2)cc(C(C)C)c1NC(=O)C(=O)C1C(=O)NC(=S)NC1=O
GI50 [1]: > 100 µM (inactive) | GI50 [2]: > 100 µM (inactive) | GI50 [3]: > 100 µM (inactive) | GI50 [4]: > 100 µM (inactive) | GI50 [5]: > 100 µM (inactive) | GI50 [6]: > 100 µM (inactive) | GI50 [7]: > 100 µM (inactive) | GI50 [8]: > 100 µM (inactive) | GI50 [9]: > 100 µM (inactive) | GI50 [10]: > 100 µM (inactive) | GI50 [11]: > 100 µM (inactive) | GI50 [12]: > 100 µM (inactive) | GI50 [13]: > 100 µM (inactive) | GI50 [14]: > 100 µM (inactive) | GI50 [15]: > 100 µM (inactive) | GI50 [16]: > 100 µM (inactive) | GI50 [17]: > 100 µM (inactive) | GI50 [18]: > 100 µM (inactive) | GI50 [19]: > 100 µM (inactive) | GI50 [20]: > 100 µM (inactive) | GI50 [21]: > 100 µM (inactive) | GI50 [22]: > 100 µM (inactive) | GI50 [23]: > 100 µM (inactive) | GI50 [24]: > 100 µM (inactive) | GI50 [25]: > 100 µM (inactive) | GI50 [26]: > 100 µM (inactive) | GI50 [27]: > 100 µM | GI50 [28]: > 100 µM (inactive) | GI50 [29]: > 100 µM (inactive) | GI50 [30]: > 100 µM (inactive) | GI50 [31]: > 100 µM (inactive) | GI50 [32]: > 100 µM (inactive) | GI50 [33]: > 100 µM (inactive) | GI50 [34]: > 100 µM (inactive) | GI50 [35]: > 100 µM (inactive) | GI50 [36]: > 100 µM (inactive) | GI50 [37]: > 100 µM (inactive) | GI50 [38]: > 100 µM (inactive) | GI50 [39]: > 100 µM (inactive) | GI50 [40]: > 100 µM (inactive) | GI50 [41]: > 100 µM (inactive) | GI50 [42]: > 100 µM (inactive) | GI50 [43]: > 100 µM (inactive) | GI50 [44]: > 100 µM (inactive) | GI50 [45]: > 100 µM (inactive) | GI50 [46]: > 100 µM (inactive) | GI50 [47]: > 100 µM (inactive) | GI50 [48]: > 100 µM (inactive) | GI50 [49]: > 100 µM (inactive) | GI50 [50]: > 100 µM (inactive) | GI50 [51]: > 100 µM (inactive) | GI50 [52]: > 100 µM (inactive) | GI50 [53]: > 100 µM (inactive) | GI50 [54]: > 100 µM (inactive) | GI50 [55]: > 100 µM (inactive)
